Assay: RP-TLC on cellulose layers, lipophilicity evaluation with water-organic modifier binary solvent systems
Type: physicochemical
Conditions: for hRF / - m (slope, specific hydrophobic surface area) / C0 (hydrophobicity parameter, C0 = - RM0/m) / RM0 (intercept, hydrophobicity parameter): cellulose; for - m (slope, specific hydrophobic surface area) / C0 (hydrophobicity parameter, C0 = - RM0/m) / RM0 (intercept, hydrophobicity parameter): organic modifier 10-30%; for relative lipophilicity among the investigated substances: RP-TLC on cellulose, all mobile phases
Description: The three, water-organic modifier, binary solvent systems were used with different volume fractions. All components of mobile phases were of analytical grade of purity.
The TLC experiments were performed on 10 cm × 10 cm cellulose (Art. 105552, Merck, Germany) layers.
After the development, the detection was performed by exposing the plates to iodine vapour. All investigations were performed at room temperature (22 ± 2 °C).
The RF -values were calculated according to the relationship:
RF = Distance of spot from origin / Distance of mobile phase front from origin
Here, RM-values were calculated for each solute in each mobile phase according to the Bate-Smith and Westall equation ([29]):
RM=log (1/RF-1) (Equation 1)
In an aim to establish the reversed-phase TLC on cellulose, the mobile phase had to be more polar than the cellulose.
The retention behavior of biological active substances investigated in RP-TLC can be presented as the relationship between the RM-values and the content of organic modifier in mobile phase through the linear Equation ([16]):
RM = R^0M + mC (Equation 2)
The value of the intercept, R^0M, represents the lipophilicity of the examined substance and the value of the slope, m, corresponds to the specific hydrophobic surface area of this substance, while C represents the volume fraction of the organic modifier in mobile phase.
By the analogy through the hydrophobicity parameter of φ0 ([6], [7]), previously defined for the HPLC method as the concentration of the organic modifier in the mobile phase for which the distribution of the analyzed substance between the mobile and stationary phase was equal (1:1) another hydrophobicity parameter, C0, can be calculated. The hydrophobicity parameter, C0, represents the volume fraction of the organic modifier in mobile phase where RM = 0 ([11]-[12]) and it can be calculated as C0 = - R^0M / m.

[1] = water-acetone, 10 vol% organic modifier
[2] = water-acetone, 15 vol% organic modifier
[3] = water-acetone, 20 vol% organic modifier
[4] = water-acetone, 25 vol% organic modifier
[5] = water-acetone, 30 vol% organic modifier
[6] = water-ethanol, 10 vol% organic modifier
[7] = water-ethanol, 15 vol% organic modifier
[8] = water-ethanol, 20 vol% organic modifier
[9] = water-ethanol, 25 vol% organic modifier
[10] = water-ethanol, 30 vol% organic modifier
[11] = water-methanol, 10 vol% organic modifier
[12] = water-methanol, 15 vol% organic modifier
[13] = water-methanol, 20 vol% organic modifier
[14] = water-methanol, 25 vol% organic modifier
[15] = water-methanol, 30 vol% organic modifier

SMILES	hRF [1]	hRF [2]	hRF [3]	hRF [4]	hRF [5]	- m (slope, specific hydrophobic surface area) (water-acetone)	hRF [6]	hRF [7]	hRF [8]	hRF [9]	hRF [10]	- m (slope, specific hydrophobic surface area) (water-ethanol)	hRF [11]	hRF [12]	hRF [13]	hRF [14]	hRF [15]	- m (slope, specific hydrophobic surface area) (water-methanol)	C0 (hydrophobicity parameter, C0 = - RM0/m) (water-methanol)	relative lipophilicity among the investigated substances	other results
NS(=O)(=O)c1cc2c(cc1Cl)NCNS2(=O)=O [HCTZ, 6-chloro-3,4-dihydro-2H-1,2,4-benzothiadiazine-7-sulfonamide,1,1-dioxide]	83	85	88	92	95	2.975 ± 0.004	85	87	90	93	95	2.697 ± 0.002	80	83	85	90	92	2.366 ± 0.023	–	–	–
CCOC(=O)C(CCc1ccccc1)N[C@@H](C)C(=O)N1CCC[C@H]1C(=O)O (stereo partly drawn) [Substance 1, (S)-1-[N-[1-(ethoxycarbonyl)-3-phenylpropyl]-L-alanyl]-L-proline]	78	84	86	89	93	2.671 ± 0.002	81	85	90	92	93	2.589 ± 0.002	78	80	83	86	88	1.635 ± 0.001	–	–	–
NCCCC[C@H](NC(CCc1ccccc1)C(=O)O)C(=O)N1CCC[C@H]1C(=O)O.O.O (stereo partly drawn) [Substance 3, (S)-1-[N^2-(1-carboxy-3-phenylpropyl)-L-lysyl]-L-proline dihydrate]	86	90	92	94	96	2.849 ± 0.001	91	93	95	96	97	2.533 ± 0.001	85	88	91	92	93	1.871 ± 0.002	–	most hydrophilic	–

Second part, led by results:

hRF [1]	hRF [2]	hRF [3]	hRF [4]	hRF [5]	- m (slope, specific hydrophobic surface area) (water-acetone)	hRF [6]	hRF [7]	hRF [8]	hRF [9]	hRF [10]	- m (slope, specific hydrophobic surface area) (water-ethanol)	hRF [11]	hRF [12]	hRF [13]	hRF [14]	hRF [15]	- m (slope, specific hydrophobic surface area) (water-methanol)	C0 (hydrophobicity parameter, C0 = - RM0/m) (water-methanol)	SMILES	relative lipophilicity among the investigated substances	other results
55	60	66	70	73	1.763 ± 0.001	65	70	74	79	82	1.974 ± 0.001	53	58	65	68	71	1.721 ± 0.001	0.063	CCOC(=O)[C@H](CCc1ccccc1)N[C@@H](C)C(=O)N1Cc2ccccc2C[C@H]1C(=O)O [Substance 2, [3S-[2[R* (R*)],3R*]]-2-[2-[[1-(ethoxycarbonyl)-3-phenylpropyl]amino]-1-oxopropyl]-1,2,3,4-tetrahydro-3-isoquinolinecarboxylic acid]	most lipophilic	C0 (hydrophobicity parameter, C0 = - RM0/m) (water-acetone): 0.047; RM0 (intercept, hydrophobicity parameter) (water-acetone): 0.082 ± 0.020; RM0 (intercept, hydrophobicity parameter) (water-methanol): 0.109 ± 0.032
66	70	73	77	80	1.569 ± 0.001	73	76	79	83	88	2.109 ± 0.002	60	68	75	80	85	2.858 ± 0.001	0.036	CCOC(=O)[C@H](CCc1ccccc1)N[C@H]1CCCN2CCC[C@@H](C(=O)O)N2C1=O [Substance 4, [1S-[1α,9α (R*)]]-9-[[1-(ethoxycarbonyl)-3-phenylpropyl]amino] octahydro-10-oxo-6H-pyridazino [1,2-a] [1,2] diazepine-1-carboxylic acid monohydrate]	–	RM0 (intercept, hydrophobicity parameter) (water-methanol): 0.104 ± 0.010
